According to patent US6737064B2, “Method for the diagnosis of neoplastic tissue comprising administering a vasopermeability enhancing peptide of human interleukin-2” (The University of Southern California, priority 1996, dated 2004):

Test system: Raji tumor-bearing nude mice
Experiment: In vivo vasopermeability / biodistribution study, Raji lymphoma model (tumor uptake of 125I-Lym-1 F(ab')2 after pre-treatment)
Method: The Raji lymphoma cell line was used to produce heterotransplants in 6-week-old female nude mice by the subcutaneous injection of a 0.2 ml inoculum consisting of 4×10^7 Raji cells and 4×10^6 human fetal fibroblast feeder cells in the left thigh. Three days prior to injection, the mice were irradiated with 400 rads using a cesium irradiator to ensure a high take rate of the implanted cells. The tumors were grown for 14-18 days until they grew to approximately 1 cm in diameter.
To test the relative effects of the immunoconjugates on the biodistribution and tumor uptake of Lym-1 or TNT-1 in tumor-bearing mice, separate groups of 4-5 mice were given intravenous injections of 30 μg of antibody alone or antibody conjugate. At 2.5 hr after injection, each group received 50 μCi of ^125I-labeled Lym-1 or TNT-1 F(ab′)2 fragment as tracer.
All animals were sacrificed 72 hr later, by sodium pentobarbital overdose, for biodistribution analysis. Various organs, blood, and tumor were removed, weighed, and samples were counted in a gamma counter. For each mouse, data were expressed as tumor:organ ratio (cpm per gram tumor/cpm per gram organ) and percent injected dose/gram (% ID/g).

3C: synthetic IL-2 peptide, amino acids 22-58 (SEQ ID NO:1), permeability enhancing peptide (EMILNGINNYKNPKLTRMLTFKFYMPKKATELKHLQC; listed as Homo sapiens) [Fragment 3C]
Vasopermeability (% Lym-1/IL-2) (i.v., enhanced Lym-1 uptake relative to Lym-1/IL-2 conjugate, 30-40 pM of peptide per assay): 0 % Lym-1/IL-2

E6: synthetic peptide fragment of human IL-2, amino acids 22-38 (QMILNGINNYKNPKLTR; UniProt P60568 42-58, looked up, fragment) [Fragment E6]
Vasopermeability activity (in words) (intravenous administration): no activity
